Reference: US11655246B2, “Aminothiazole compounds as inhibitors of CTPS1” (STEP PHARMA S.A.S., priority 2017, dated 2023)
Counter-ions that a name gives are not always drawn.

Each compound was assayed against T1, human CTPS1 (Homo sapiens, UniProt P17812) (assay: Human CTPS1 enzyme inhibition (ADP-Glo Max assay)). Settings: Table 17, 25° C., read-out: CTPS1 (Human CTPS1 Enzyme Inhibition data grouped by potency range).
T1 construct: purchased Proteros biostructures GmbH
T1 sequence (P17812 1-591): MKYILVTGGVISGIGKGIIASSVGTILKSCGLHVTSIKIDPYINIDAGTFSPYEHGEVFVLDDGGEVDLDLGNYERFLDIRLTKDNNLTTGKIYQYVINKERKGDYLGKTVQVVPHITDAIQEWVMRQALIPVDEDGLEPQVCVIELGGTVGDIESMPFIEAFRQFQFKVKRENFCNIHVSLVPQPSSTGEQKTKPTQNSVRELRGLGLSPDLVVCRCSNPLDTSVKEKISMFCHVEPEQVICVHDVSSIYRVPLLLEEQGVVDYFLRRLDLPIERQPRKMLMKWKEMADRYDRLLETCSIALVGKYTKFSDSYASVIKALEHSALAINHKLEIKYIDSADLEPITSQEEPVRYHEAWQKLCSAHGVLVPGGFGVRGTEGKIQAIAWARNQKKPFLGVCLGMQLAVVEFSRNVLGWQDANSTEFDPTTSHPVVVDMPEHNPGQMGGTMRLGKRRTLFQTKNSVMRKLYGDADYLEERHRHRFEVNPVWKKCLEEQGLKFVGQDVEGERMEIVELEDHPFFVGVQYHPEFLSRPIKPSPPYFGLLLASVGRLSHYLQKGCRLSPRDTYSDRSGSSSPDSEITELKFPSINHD
Format: biochemical
Description: The enzyme inhibitory activities of compounds invented against the target of interest were determined using the ADP-Glo™ Max assay (Promega, UK). Assays for human CTPS1 were performed in 1× assay buffer containing 50 mM Tris, 10 mM MgCl2, 0.01% Tween-20, pH to 8.0 accordingly. Finally, immediately before use, L-cysteine was added to the 1× assay buffer to a final concentration of 2 mM. All reagents are from Sigma-Aldrich unless specified otherwise.
3× human CTPS1 protein was prepared in 1× assay buffer to the final working protein concentration required for the reaction. A 2 uL volume per well of 3× human CTPS1 protein was mixed with 2 uL per well of 3× test compound (compound prepared in 1× assay buffer to an appropriate final 3× compound concentration respective to the concentration response curve designed for the compounds under test) for 10 minutes at 25° C. […] ADP-Glo™ Max reagent was added for 60 minutes (6 uL per well) and subsequently ADP-Glo™ Max development reagent was added for 60 minutes (12 uL per well) prior to signal detection in a microplate reader (EnVision® Multilabel Reader, Perkin Elmer). Following each reagent addition over the course of the assay, assay plates were pulse centrifuged for 30 seconds at 500 rpm.
In all cases, the enzyme converts ATP to ADP and the ADP-Glo™ Max reagent subsequently depletes any remaining endogenous ATP in the reaction system. The ADP-Glo™ Max detection reagent converts the ADP that has been enzymatically produced back into ATP and using ATP as a substrate together with luciferin for the enzyme luciferase, light is generated which produces a detectable luminescence. […] The percentage inhibition produced by each concentration of compound was calculated using the equation shown below: […]

`Cc1ncccc1-c1ccc(NC(=O)Cc2csc(NS(=O)(=O)C3CC3)n2)cc1` [T100] and `CCC(C(=O)Nc1ccc(-c2cccnc2)cc1)c1csc(NS(=O)(=O)C2CC2)n1` (single isomer, unassigned) [T6, 2-(2-(cyclopropanesulfonamido)thiazol-4-yl)-N-(4-(pyridin-3-yl)phenyl)butanamide.HCl] fall in the same range of IC50: 100 to 1000 nM for the first, 100 to 1000 nM for the second.

`CC(C)(C(=O)Nc1ccc(-c2cccc(Cl)c2)cc1)c1csc(NS(=O)(=O)C2CC2)n1` [T87] and `CC(C)(C(=O)Nc1ccc(-c2cccc(C#N)c2)cc1)c1csc(NS(=O)(=O)C2CC2)n1` [T88] fall in the same range of IC50: 100 to 1000 nM for the first, 100 to 1000 nM for the second.

`CCC(C(=O)Nc1ccc(-c2cncc(C#N)c2)cc1)c1csc(NS(=O)(=O)C2CC2)n1` (centres unmarked) [T194] and `CCC(C(=O)Nc1ccc(-c2cncc(C#N)c2)cc1F)c1csc(NS(=O)(=O)C2CC2)n1` (centres unmarked) [T202] cannot be ordered by IC50: under 100 nM for the first, under 100 nM for the second.

`CC(C)C(C(=O)Nc1ccc(-c2cccnc2)cc1)c1csc(NS(=O)(=O)C2CC2)n1` (racemic) [T12, 2-(2-(cyclopropanesulfonamido)thiazol-4-yl)-3-methyl-N-(4-(pyridin-3-yl)phenyl)butanamide] and `CC(C(=O)Nc1ccc(-c2cccnc2)nc1)c1csc(NS(=O)(=O)C2CC2)n1` (centres unmarked) [T27] fall in the same range of IC50: 100 to 1000 nM for the first, 100 to 1000 nM for the second.

First: CC(C)(C(=O)Nc1ccc(-c2ncccn2)cc1)c1csc(NS(=O)(=O)C2CC2)n1 [T4, 2-(2-(cyclopropanesulfonamido)thiazol-4-yl)-2-methyl-N-(4-(pyrimidin-2-yl)phenyl)propanamide]
Second: CCC(CC)(C(=O)Nc1ccc(-c2cncc(Cl)n2)cc1)c1csc(NS(=O)(=O)C2CC2)n1 [T160]
The IC50 of the first is higher: 1000 to 10000 nM for the first, under 100 nM for the second.

`CCC(C(=O)Nc1ccc(-c2cnccn2)cc1F)c1csc(NS(=O)(=O)C2CC2)n1` (centres unmarked) [T196] and `CCC(C(=O)Nc1ccc(-c2cncc(F)c2)cn1)c1csc(NS(=O)(=O)C2CC2)n1` (centres unmarked) [T179] cannot be ordered by IC50: under 100 nM for the first, under 100 nM for the second.

`COCCC(C(=O)Nc1ccc(-c2cncc(C(F)(F)F)n2)cn1)c1csc(NS(=O)(=O)C2CC2)n1` (centres unmarked) [T59] and `CCC(C(=O)Nc1ccc(-c2cncc(OC)n2)cn1)c1csc(NS(=O)(=O)C2CC2)n1` (centres unmarked) [T176] cannot be ordered by IC50: under 100 nM for the first, under 100 nM for the second.

`CS(=O)(=O)Nc1nc(CC(=O)Nc2ccc(-c3ccccc3)cc2)cs1` [T1, N-([1,1′-biphenyl]-4-yl)-2-(2-(methylsulfonamido)thiazol-4-yl)acetamide] and `CCC(C(=O)Nc1ccc(-c2ccnnc2)cc1)c1csc(NS(=O)(=O)C2CC2)n1` (centres unmarked) [T69] fall in the same range of IC50: 1000 to 10000 nM for the first, 1000 to 10000 nM for the second.

`CCC(C(=O)Nc1ccc(-c2cncc(C3CC3)n2)cc1)c1csc(NS(=O)(=O)C2CC2)n1` (centres unmarked) [T291] and `CCC(C(=O)Nc1ccc(-c2cncc(Cl)n2)cc1)c1csc(NS(=O)(=O)C2CC2)n1` (centres unmarked) [T78, N-(4-(6-chloropyrazin-2-yl)phenyl)-2-(2-(cyclopropanesulfonamido)thiazol-4-yl)butanamide] cannot be ordered by IC50: under 100 nM for the first, under 100 nM for the second.

`COCCC(C(=O)Nc1ccc(-c2cncc(OC)n2)cc1)c1csc(NS(=O)(=O)C2CC2)n1` (centres unmarked) [T190] and `CC(C(=O)Nc1ccc(-c2cncc(Cl)c2)cc1)c1csc(NS(=O)(=O)C2CC2)n1` (centres unmarked) [T95] cannot be ordered by IC50: under 100 nM for the first, under 100 nM for the second.

`CCOc1cncc(-c2cnc(NC(=O)C(CC)c3csc(NS(=O)(=O)C4CC4)n3)c(F)c2)n1` (centres unmarked) [T183] gave an IC50 of under 100 nM.

Same assay, conditions: Table 18, additional potency data, 25° C., read-out: CTPS1 (Human CTPS1 Enzyme Inhibition data grouped by potency range)

Compared with `Cc1sc(NS(=O)(=O)C2CC2)nc1C(C)(C)C(=O)Nc1ccc(-c2cncc(C(F)(F)F)n2)cn1` [T340, 2-(2-(cyclopropanesulfonamido)-5-methylthiazol-4-yl)-2-methyl-N-(5-(6-(trifluoromethyl)pyrazin-2-yl)pyridin-2-yl)propanamide], `CCOc1cncc(-c2ccc(NC(=O)C(C)(C)c3nc(NS(=O)(=O)C4CC4)sc3C)nc2)n1` [T342, 2-(2-(cyclopropanesulfonamido)-5-methylthiazol-4-yl)-N-(5-(6-ethoxypyrazin-2-yl)pyridin-2-yl)-2-methylpropanamide] is lower in IC50: 100 to 1000 nM for the first, under 100 nM for the second. The second is the more potent here.

`CC(C)(C(=O)Nc1ccc(-c2cncc(C(F)(F)F)n2)cc1F)c1csc(NS(C)(=O)=O)n1` [T391, N-(2-fluoro-4-(6-(trifluoromethyl)pyrazin-2-yl)phenyl)-2-methyl-2-(2-(methylsulfonamido)thiazol-4-yl)propanamide] and `Cc1cc(-c2cncc(C(F)(F)F)n2)ccc1NC(=O)C(C)(C)c1csc(NS(=O)(=O)C2CC2)n1` [T368, 2-(2-(cyclopropanesulfonamido)thiazol-4-yl)-2-methyl-N-(2-methyl-4-(6-(trifluoromethyl)pyrazin-2-yl)phenyl)propanamide] cannot be ordered by IC50: under 100 nM for the first, under 100 nM for the second.

`CCOc1cncc(-c2ccc(NC(=O)C(C)(C)c3csc(NS(=O)(=O)C4CC4)n3)c(C(C)C)c2)n1` [T362, 2-(2-(cyclopropanesulfonamido)thiazol-4-yl)-N-(4-(6-ethoxypyrazin-2-yl)-2-isopropylphenyl)-2-methylpropanamide] and `CCOc1cncc(-c2ccc(NC(=O)C(C)(C)c3csc(NS(C)(=O)=O)n3)nc2)n1` [T390, N-(5-(6-ethoxypyrazin-2-yl)pyridin-2-yl)-2-methyl-2-(2-(methylsulfonamido)thiazol-4-yl)propanamide] cannot be ordered by IC50: under 100 nM for the first, under 100 nM for the second.

First: CCc1cncc(-c2ccc(NC(=O)C(CC)c3csc(NS(=O)(=O)C4CC4)n3)c(F)c2)n1 (centres unmarked) [T405, 2-(2-(cyclopropanesulfonamido)thiazol-4-yl)-N-(4-(6-ethylpyrazin-2-yl)-2-fluorophenyl)butanamide]
Second: CCC(C(=O)Nc1ccc(-c2cncc(C(C)(C)OC)n2)cc1F)c1csc(NS(=O)(=O)C2CC2)n1 (centres unmarked) [T403, 2-(2-(cyclopropanesulfonamido)thiazol-4-yl)-N-(2-fluoro-4-(6-(2-methoxypropan-2-yl)pyrazin-2-yl)phenyl)butanamide]
The IC50 of the first is lower: under 100 nM for the first, 100 to 1000 nM for the second.

`CCOc1cncc(-c2ccc(NC(=O)C(NC(C)=O)c3csc(NS(=O)(=O)C4CC4)n3)cc2)n1` (centres unmarked) [T326, 2-acetamido-2-(2-(cyclopropanesulfonamido)thiazol-4-yl)-N-(4-(6-ethoxypyrazin-2-yl)phenyl)acetamide] and `CCOc1cncc(-c2ccc(NC(=O)C(NC(=O)OC(C)(C)C)c3csc(NS(=O)(=O)C4CC4)n3)cc2)n1` (centres unmarked) [T407, tert-butyl (1-(2-(cyclopropanesulfonamido)thiazol-4-yl)-2-((4-(6-ethoxypyrazin-2-yl)phenyl)amino)-2-oxoethyl)carbamate] cannot be ordered by IC50: under 100 nM for the first, under 100 nM for the second.

Compared with `Cc1c(NC(=O)C(C)(C)c2csc(NS(=O)(=O)C3CC3)n2)ccc(-c2cncc(Cl)c2)c1C` [T365, N-(4-(5-chloropyridin-3-yl)-2,3-dimethylphenyl)-2-(2-(cyclopropanesulfonamido)thiazol-4-yl)-2-methylpropanamide], `CC(C)(C(=O)Nc1ccc(-c2cncc(O)n2)cc1)c1csc(NS(=O)(=O)C2CC2)n1` [T379, 2-(2-(cyclopropanesulfonamido)thiazol-4-yl)-N-(4-(6-hydroxypyrazin-2-yl)phenyl)-2-methylpropanamide] is higher in IC50: under 100 nM for the first, 1000 to 10000 nM for the second.

First: CCC(C(=O)Nc1ccc(-c2cncc(C(F)(F)F)n2)cn1)c1csc(NS(=O)(=O)C2CC2)n1 (single isomer, unassigned) [T414, 2-(2-(cyclopropanesulfonamido)thiazol-4-yl)-N-(5-(6-(trifluoromethyl)pyrazin-2-yl)pyridin-2-yl)butanamide]
Second: CCC(C(=O)Nc1ccc(-c2cncc(C(C)(C)OC)n2)cn1)c1csc(NS(=O)(=O)C2CC2)n1 (centres unmarked) [T402, 2-(2-(cyclopropanesulfonamido)thiazol-4-yl)-N-(5-(6-(2-methoxypropan-2-yl)pyrazin-2-yl)pyridin-2-yl)butanamide]
The IC50 of the first is lower: under 100 nM for the first, 1000 to 10000 nM for the second. The first is the more potent here.

First: CCS(=O)(=O)Nc1nc(C(C)(C)C(=O)Nc2ccc(-c3cncc(C#N)c3)cc2)cs1 [T384, N-(4-(5-cyanopyridin-3-yl)phenyl)-2-(2-(ethylsulfonamido)thiazol-4-yl)-2-methylpropanamide]
Second: CCS(=O)(=O)Nc1nc(C(C)(C)C(=O)Nc2ccc(-c3cncc(OC(C)C)n3)cc2)cs1 [T388, 2-(2-(ethylsulfonamido)thiazol-4-yl)-N-(4-(6-isopropoxypyrazin-2-yl)phenyl)-2-methylpropanamide]
The IC50 of the first is higher: 100 to 1000 nM for the first, under 100 nM for the second.

In the case of `CCOc1cncc(-c2cnc(NC(=O)C(CC)c3csc(NS(=O)(=O)C4CC4)n3)c(C)c2)n1` (centres unmarked) [T438], the IC50 is reported as under 100 nM.
